Reference: ChEMBL document CHEMBL4270672, “Synthesis and Biological Evaluation of Fused Tricyclic Heterocycle Piperazine (Piperidine) Derivatives As Potential Multireceptor Atypical Antipsychotics” (J Med Chem, 2018)
Activity calls are given as the source filed them. The rule behind the calls is not given here.

Assays:
[1] = molecular target: D(3) dopamine receptor (Rattus norvegicus, UniProt P19020)
[2] = Displacement of [3H]-DTG from sigma2 receptor in guinea pig brain membranes after 120 mins by liquid scintillation counting; format: cell membranes, Cavia porcellus, Membrane
[3] = molecular target: D(3) dopamine receptor (Homo sapiens, UniProt P35462)
[4] = molecular target: 5-hydroxytryptamine receptor 1A (Homo sapiens) (UniProt P08908); experiment: Agonist activity at serotonin 5-HT1A receptor (unknown origin) expressed in HEK293 cells assessed as induction of calcium flux at 10 uM after 60 mins by calcium 4-dye based FLIPR assay relative to control; format: functional, cell-based
[5] = molecular target: Glutamate NMDA receptor; experiment: Displacement of [3H] glycine from NMDA receptor in rat hippocampal membrane homogenates after 30 mins by liquid scintillation counting; format: cell membranes
[6] = organism: Mus musculus; experiment: animal or person; conditions: Kunming, po
Description: (§1) Antipsychotic activity in po dosed Kunming mouse assessed as reduction in MK-801-induced hyperactivity pretreated for 60 mins followed by MK-801 challenge measured for 90 mins

[7] = tested on: Mus musculus; experiment: Induction of catalepsy in po dosed Kunming mouse measured after 60 secs; format: organism-based; conditions: in vivo, 1 min
[8] = molecular target: D(1A) dopamine receptor (Homo sapiens, UniProt P21728); experiment: Antagonist activity at human dopamine D1 receptor expressed in HEK293T cells assessed as inhibition of dopamine-induced cAMP accumulation at 10 uM preincubated for 15 mins followed by dopamine induction and measured after 30 mins by HTRF assay; format: functional, cell-based
[9] = AUC (0 to t) in Sprague-Dawley rat at 1 mg/kg, iv by LC-MS/MS analysis; format: ADME, organism-based; conditions: in vivo
[10] = Tmax in Sprague-Dawley rat at 10 mg/kg, po by LC-MS/MS analysis; format: ADME, organism-based; conditions: in vivo
[11] = tested on: Mus musculus; experiment: Induction of weight gain in Kunming mouse at 0.6 to 5.4 mg/kg, po administered for 28 days measured every day during compound dosing; format: organism-based; conditions: in vivo, 672 h
[12] = tested on: Mus musculus; conditions: Kunming
Description: as §1

[13] = tested on: Rattus norvegicus; experiment: Cognitive enhancing effect in Sprague-Dawley rat assessed as increase in novelty discrimination index in retention trial at 0.3 mg/kg, po administered 1 hr prior to acquisition trial measured 24 hrs post acquisition trial for 5 mins by novel object recognition test; format: functional, organism-based
[14] = molecular target: Voltage-gated inwardly rectifying potassium channel KCNH2 (Homo sapiens, UniProt Q12809)
Description: Inhibition of human ERG expressed in HEK293 cells at -50 mV holding potential by patch clamp assay

[15] = molecular target: 5-hydroxytryptamine receptor 6 (Homo sapiens, UniProt P50406); experiment: Agonist activity at serotonin 5-HT6 receptor (unknown origin) expressed in HEK293 cells assessed as induction of calcium flux at 10 uM after 60 mins by calcium 4-dye based FLIPR assay relative to control; format: functional, cell-based
[16] = tested on: Rattus norvegicus; experiment: Cognitive enhancing effect in Sprague-Dawley rat assessed as increase in total exploration time for novel objects in retention trial at 0.1 to 0.3 mg/kg, po administered 1 hr prior to acquisition trial measured 24 hrs post acquisition trial for 5 mins by novel object recognition test; format: functional, organism-based
[17] = molecular target: 5-hydroxytryptamine receptor 2A (Rattus norvegicus, UniProt P14842); experiment: Displacement of [3H]-ketanserine from serotonin 5-HT2A receptor in rat brain cortex homogenates incubated for 30 mins by liquid scintillation counting
[18] = molecular target: Sodium-dependent dopamine transporter (Rattus norvegicus, UniProt P23977); experiment: Displacement of [3H] WIN35,428 from rat striatum homogenate DAT after 8 hrs mins by liquid scintillation counting
[19] = Cmax in Sprague-Dawley rat at 10 mg/kg, po by LC-MS/MS analysis; format: ADME, organism-based; set-up: dose 10 mg/kg, route oral; conditions: in vivo
[20] = molecular target: D(2) dopamine receptor (Homo sapiens, UniProt P14416)
D(2) dopamine receptor, sequence (P14416 whole entry): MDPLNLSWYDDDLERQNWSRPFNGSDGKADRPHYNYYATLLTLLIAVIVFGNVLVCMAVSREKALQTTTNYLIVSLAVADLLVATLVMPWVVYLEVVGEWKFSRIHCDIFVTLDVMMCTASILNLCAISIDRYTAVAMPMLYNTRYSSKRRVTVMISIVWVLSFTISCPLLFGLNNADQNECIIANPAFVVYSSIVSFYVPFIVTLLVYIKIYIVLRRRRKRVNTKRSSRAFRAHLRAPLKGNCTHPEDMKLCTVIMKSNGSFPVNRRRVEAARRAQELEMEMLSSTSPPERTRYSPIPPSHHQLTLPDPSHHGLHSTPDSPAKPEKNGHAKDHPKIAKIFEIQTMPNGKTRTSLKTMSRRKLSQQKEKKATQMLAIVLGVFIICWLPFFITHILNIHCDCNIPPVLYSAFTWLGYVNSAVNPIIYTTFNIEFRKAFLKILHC

D(3) dopamine receptor (Homo sapiens, UniProt P35462), sequence (P35462 whole entry): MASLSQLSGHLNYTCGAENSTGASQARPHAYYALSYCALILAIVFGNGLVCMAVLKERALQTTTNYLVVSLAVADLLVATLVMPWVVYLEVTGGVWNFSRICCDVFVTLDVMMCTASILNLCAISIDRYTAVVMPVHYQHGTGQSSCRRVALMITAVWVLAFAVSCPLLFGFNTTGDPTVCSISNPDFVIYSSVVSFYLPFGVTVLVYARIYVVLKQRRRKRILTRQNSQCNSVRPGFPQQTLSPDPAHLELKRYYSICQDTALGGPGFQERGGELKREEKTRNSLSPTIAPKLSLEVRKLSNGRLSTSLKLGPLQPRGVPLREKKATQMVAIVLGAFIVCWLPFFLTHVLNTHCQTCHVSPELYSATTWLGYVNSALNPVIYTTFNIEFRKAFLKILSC
Sodium-dependent dopamine transporter, sequence (P23977 whole entry): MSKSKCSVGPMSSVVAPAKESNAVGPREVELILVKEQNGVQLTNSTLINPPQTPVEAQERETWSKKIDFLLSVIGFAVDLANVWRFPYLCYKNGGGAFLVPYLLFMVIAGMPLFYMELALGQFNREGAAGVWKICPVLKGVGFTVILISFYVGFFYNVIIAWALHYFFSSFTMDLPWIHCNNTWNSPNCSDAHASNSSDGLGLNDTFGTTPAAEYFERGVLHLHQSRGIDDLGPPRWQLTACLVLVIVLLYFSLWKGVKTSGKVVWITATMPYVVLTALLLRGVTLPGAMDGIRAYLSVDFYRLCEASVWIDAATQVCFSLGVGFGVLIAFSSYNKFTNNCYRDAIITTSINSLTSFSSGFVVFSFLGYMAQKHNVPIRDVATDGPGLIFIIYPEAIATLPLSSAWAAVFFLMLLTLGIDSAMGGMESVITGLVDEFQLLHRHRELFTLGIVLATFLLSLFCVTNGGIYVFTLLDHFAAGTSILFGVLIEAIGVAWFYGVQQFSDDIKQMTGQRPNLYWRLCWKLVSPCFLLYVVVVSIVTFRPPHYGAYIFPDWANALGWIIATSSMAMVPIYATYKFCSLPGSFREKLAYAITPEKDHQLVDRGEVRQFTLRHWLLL
5-hydroxytryptamine receptor 2A, sequence (P14842 whole entry): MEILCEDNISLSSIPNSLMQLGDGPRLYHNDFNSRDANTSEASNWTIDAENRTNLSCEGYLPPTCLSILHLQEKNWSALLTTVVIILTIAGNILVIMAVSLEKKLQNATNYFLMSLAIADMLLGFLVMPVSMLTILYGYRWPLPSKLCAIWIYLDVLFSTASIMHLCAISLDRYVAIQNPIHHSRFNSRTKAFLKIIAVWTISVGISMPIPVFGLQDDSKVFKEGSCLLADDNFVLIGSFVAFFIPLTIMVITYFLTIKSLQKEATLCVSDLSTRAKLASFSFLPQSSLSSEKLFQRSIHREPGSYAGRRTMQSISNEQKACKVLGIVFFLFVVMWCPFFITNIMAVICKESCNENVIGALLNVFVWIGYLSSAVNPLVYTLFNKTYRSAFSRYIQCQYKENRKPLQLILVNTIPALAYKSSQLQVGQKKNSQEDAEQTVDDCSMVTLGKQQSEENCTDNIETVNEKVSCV
D(1A) dopamine receptor, sequence (P21728 whole entry): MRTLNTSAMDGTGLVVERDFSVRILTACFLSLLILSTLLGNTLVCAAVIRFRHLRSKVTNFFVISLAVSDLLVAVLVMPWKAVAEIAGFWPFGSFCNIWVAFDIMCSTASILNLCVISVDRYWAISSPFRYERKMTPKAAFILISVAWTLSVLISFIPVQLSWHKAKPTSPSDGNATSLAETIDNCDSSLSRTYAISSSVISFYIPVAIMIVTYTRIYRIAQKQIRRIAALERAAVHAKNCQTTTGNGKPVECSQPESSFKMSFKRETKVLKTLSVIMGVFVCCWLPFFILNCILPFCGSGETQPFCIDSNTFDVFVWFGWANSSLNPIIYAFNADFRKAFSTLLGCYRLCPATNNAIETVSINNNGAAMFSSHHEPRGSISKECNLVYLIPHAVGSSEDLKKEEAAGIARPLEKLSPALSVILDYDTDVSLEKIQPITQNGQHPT
5-hydroxytryptamine receptor 1A (Homo sapiens), sequence (P08908 whole entry): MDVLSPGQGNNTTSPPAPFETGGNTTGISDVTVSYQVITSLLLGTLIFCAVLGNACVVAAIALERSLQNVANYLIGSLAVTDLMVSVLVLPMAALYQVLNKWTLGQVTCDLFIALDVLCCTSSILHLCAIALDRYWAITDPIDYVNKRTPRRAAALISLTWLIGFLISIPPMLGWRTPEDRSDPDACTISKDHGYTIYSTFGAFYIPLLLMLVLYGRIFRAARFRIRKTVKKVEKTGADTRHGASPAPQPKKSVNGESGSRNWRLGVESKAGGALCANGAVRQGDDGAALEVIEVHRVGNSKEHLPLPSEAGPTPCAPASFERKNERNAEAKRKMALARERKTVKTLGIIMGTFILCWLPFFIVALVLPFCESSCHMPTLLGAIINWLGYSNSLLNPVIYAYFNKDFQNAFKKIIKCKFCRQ
Voltage-gated inwardly rectifying potassium channel KCNH2, sequence (Q12809 whole entry): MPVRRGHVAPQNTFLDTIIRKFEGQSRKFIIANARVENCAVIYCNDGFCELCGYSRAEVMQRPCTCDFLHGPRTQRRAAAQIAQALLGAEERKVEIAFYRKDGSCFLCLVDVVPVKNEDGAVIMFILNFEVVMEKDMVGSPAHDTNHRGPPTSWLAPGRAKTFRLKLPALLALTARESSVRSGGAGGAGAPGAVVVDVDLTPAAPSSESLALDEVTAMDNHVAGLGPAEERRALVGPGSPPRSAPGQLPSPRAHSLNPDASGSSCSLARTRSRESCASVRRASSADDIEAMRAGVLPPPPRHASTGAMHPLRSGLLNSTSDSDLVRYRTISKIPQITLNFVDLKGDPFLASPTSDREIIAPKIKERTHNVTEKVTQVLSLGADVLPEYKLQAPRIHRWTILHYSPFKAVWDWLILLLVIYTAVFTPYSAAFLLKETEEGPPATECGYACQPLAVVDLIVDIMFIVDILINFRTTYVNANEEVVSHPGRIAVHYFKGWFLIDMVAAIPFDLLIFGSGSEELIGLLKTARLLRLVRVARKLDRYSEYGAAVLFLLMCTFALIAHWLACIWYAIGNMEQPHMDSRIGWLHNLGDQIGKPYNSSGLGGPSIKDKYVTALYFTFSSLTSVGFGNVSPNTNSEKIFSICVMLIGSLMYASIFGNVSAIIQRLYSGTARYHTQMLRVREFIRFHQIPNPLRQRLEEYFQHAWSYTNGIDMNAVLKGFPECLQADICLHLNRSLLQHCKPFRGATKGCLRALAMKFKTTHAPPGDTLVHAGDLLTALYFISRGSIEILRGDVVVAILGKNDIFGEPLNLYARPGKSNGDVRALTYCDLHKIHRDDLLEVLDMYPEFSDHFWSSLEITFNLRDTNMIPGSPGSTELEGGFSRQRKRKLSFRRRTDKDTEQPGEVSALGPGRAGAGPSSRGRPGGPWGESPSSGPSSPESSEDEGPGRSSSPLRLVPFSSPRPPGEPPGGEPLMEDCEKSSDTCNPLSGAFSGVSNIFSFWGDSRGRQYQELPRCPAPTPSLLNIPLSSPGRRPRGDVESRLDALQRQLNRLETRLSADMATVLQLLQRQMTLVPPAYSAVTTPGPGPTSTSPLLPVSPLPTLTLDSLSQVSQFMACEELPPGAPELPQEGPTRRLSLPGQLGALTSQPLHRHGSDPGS
D(3) dopamine receptor (Rattus norvegicus, UniProt P19020), sequence (P19020 whole entry): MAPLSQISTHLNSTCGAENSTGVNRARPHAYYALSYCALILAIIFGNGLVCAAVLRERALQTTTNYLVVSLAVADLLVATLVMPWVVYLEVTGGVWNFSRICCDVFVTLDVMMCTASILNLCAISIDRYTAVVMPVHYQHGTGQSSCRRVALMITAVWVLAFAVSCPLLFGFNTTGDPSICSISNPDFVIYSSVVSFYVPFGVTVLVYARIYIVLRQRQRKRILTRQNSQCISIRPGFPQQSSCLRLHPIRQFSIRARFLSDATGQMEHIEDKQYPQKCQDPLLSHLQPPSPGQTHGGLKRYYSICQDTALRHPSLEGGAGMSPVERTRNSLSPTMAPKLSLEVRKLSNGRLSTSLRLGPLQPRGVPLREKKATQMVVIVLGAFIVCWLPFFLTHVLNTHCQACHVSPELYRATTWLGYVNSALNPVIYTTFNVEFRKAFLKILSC
5-hydroxytryptamine receptor 6, sequence (P50406 whole entry): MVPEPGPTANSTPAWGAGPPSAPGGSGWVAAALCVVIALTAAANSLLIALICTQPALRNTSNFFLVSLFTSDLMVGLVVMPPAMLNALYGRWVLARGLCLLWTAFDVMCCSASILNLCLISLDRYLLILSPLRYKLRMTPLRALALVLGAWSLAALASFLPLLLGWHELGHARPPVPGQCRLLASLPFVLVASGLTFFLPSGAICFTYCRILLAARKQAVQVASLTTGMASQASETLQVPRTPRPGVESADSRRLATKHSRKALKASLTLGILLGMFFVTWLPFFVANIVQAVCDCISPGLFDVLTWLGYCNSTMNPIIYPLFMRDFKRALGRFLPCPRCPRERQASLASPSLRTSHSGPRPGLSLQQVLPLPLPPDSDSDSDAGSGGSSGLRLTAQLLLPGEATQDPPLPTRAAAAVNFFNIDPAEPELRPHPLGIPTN

## O=C(CCCCN1CCC(c2noc3cc(F)ccc23)CC1)c1cc2c3c(c1)CCN3C(=O)CC2
[1]
  Ki: 1.66 nM
[2]
  Ki: > 1000 nM
[3]
  IC50: 25.6 nM
[4]
  Activity: 8.6%
[5]
  Ki: > 1000 nM
[6]
  ED50: 0.26 mg/kg
[7]
  ED50: 78.62 mg/kg
[8]
  inhibition: > 90%
[9]
  AUC(0-t): 3140 ng·h/mL
[10]
  Tmax: 1 h
[11]
  Activity: Non-Toxic
[12]
  Activity: Dose-dependent effect
[13]
  Activity: Active
[14]
  IC50: 2910 nM
[15]
  Activity: 6%
[16]
  Activity: Active
[17]
  Ki: 0.72 nM
[18]
  Ki: > 1000 nM
[19]
  Cmax: 3730 ng/mL
[20]
  IC50: 9.02 nM
